Values quoted from earlier work as cited in patent publication US8101589B2, “Nitric oxide-releasing molecules” (Noxilizer, Inc., priority 2004, dated 2012).

Settings: literature (Traube, 1898)

## methylene bisdiazeniumdiolate
  NO release in solution: inability to release NO
